Experimental data published in article PMC6104039 (Nature Communications, 2018).

How the values were obtained:
Format in all cases: biochemical
[1] = target: T1, human CerS4 (Homo sapiens, UniProt Q9HA82); assay: Ceramide synthase assay, NBD-dihydrosphingosine, C18:0-CoA; U251 cells expressing human CerS4; settings: inhibitor range 10 nM–100 μM; read-out: IC50 hCerS4
T1 construct: host or cells: U251
T1 sequence (Q9HA82 1-394): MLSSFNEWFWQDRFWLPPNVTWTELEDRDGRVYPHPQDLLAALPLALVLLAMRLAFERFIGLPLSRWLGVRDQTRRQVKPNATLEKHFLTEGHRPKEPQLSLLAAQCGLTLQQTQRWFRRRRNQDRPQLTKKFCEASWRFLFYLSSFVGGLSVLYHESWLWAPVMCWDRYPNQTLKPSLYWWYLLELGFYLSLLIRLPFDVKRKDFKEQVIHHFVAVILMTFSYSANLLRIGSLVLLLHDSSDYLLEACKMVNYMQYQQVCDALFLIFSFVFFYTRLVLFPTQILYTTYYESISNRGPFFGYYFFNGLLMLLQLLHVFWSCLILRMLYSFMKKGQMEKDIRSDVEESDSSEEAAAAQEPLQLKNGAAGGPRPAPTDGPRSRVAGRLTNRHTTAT
Procedure: (§1) Ceramide synthase assays were carried out using an HPLC-based assay with a fluorescent NBD-dihydrosphingosine substrate. All cell lines used for these assays were originally sourced from ATCC. […] Human CerS expression plasmids (pCMV6 plasmids from Origene) were transfected using FuGene-6 transfection reagent, and cells were harvested 24 h after transfection in 20 mM Hepes pH 7.4, 10 mM KCl, 1 mM dithiothreitol, 3 mM β-glycerophosphate, and EDTA-free complete protease inhibitor cocktail (Roche). Cells were sonicated in a Diagenode Bioruptor sonicating bath for 5 min, after which cell extracts were cleared by centrifugation at 800 × g for 10 min. Protein concentration in the supernatant was assayed using the bicinchoninic acid (BCA) assay, and the supernatant stored at −80 °C. COS cells were infected with lentiviral constructs expressing murine CerS1, 2, or 5, then homogenised as described above.
(§2) The reaction buffer consisted of 20 mM Hepes pH 7.4, 25 mM KCl, 2 mM MgCl2, 0.5 mM dithiothreitol, 0.1% fatty acid free BSA, 10 μM NBD-dihydrosphingosine and 50 μM fatty acid free BSA. C18:0-CoA was used as the fatty acyl substrate for CerS1 and CerS4; C24:1-CoA for CerS2; and C16:0-CoA for CerS5 and CerS6. All reactions were run in triplicate. Test inhibitors were added, after which reactions were started with the addition of 2.5–25 μg lysate protein (optimised depending on the particular CerS isoform being assayed). Assays were run for 30 min at 37 °C, and stopped with the addition of 200 μL methanol. The reaction mixture was transferred to a glass HPLC vial with 300 μL fused glass insert (Thermo Fisher Scientific) and NBD-dihydroceramide reaction products were analysed on a Thermo Scientific Surveyor HPLC connected to a Shimadzu RF-10AXL fluorescent detector (set to gain of 3). […] Data was acquired over a 12 min chromatography run using: solvent A, 0.2% formic acid, 2 mM ammonium formate in water; solvent B, 0.2% formic acid, 1 mM ammonium formate in methanol. The gradient started at 20:80 A/B, increasing to 5:95 A/B over 2 min, then to 100% B over 6 min. The gradient was then held at 100% B for 2 min, before re-equilibration to 20:80 A/B for a further 2 min. Peak areas were integrated using Xcalibur software (Thermo Fisher Scientific).

[2] = target: T2, human CerS6 (Homo sapiens, UniProt Q6ZMG9); assay: Ceramide synthase assay, NBD-dihydrosphingosine, C16:0-CoA; HEK293 cells expressing human CerS6; settings: inhibitor range 10 nM–100 μM; read-out: IC50 hCerS6
T2 construct: host or cells: HEK293
T2 sequence (Q6ZMG9 1-384): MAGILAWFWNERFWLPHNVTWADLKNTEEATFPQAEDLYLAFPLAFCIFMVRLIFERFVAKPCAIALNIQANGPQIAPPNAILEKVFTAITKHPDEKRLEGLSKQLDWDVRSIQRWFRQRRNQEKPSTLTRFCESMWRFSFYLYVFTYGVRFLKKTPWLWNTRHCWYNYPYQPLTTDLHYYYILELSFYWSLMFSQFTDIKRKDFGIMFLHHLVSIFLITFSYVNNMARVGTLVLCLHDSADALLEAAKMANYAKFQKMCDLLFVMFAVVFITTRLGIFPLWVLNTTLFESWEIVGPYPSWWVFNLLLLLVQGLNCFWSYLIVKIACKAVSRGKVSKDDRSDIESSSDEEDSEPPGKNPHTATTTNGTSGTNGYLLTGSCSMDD
Procedure: as §1, §2

[3] = target: murine CerS2 (Mus musculus, UniProt Q924Z4); assay: Ceramide synthase assay, NBD-dihydrosphingosine, C24:1-CoA; COS cells expressing murine CerS2; settings: inhibitor range 10 nM–100 μM; read-out: IC50 mCerS2
Procedure: Ceramide synthase assays were carried out using an HPLC-based assay with a fluorescent NBD-dihydrosphingosine substrate. All cell lines used for these assays were originally sourced from ATCC. […] Cells were sonicated in a Diagenode Bioruptor sonicating bath for 5 min, after which cell extracts were cleared by centrifugation at 800 × g for 10 min. Protein concentration in the supernatant was assayed using the bicinchoninic acid (BCA) assay, and the supernatant stored at −80 °C. COS cells were infected with lentiviral constructs expressing murine CerS1, 2, or 5, then homogenised as described above.
The reaction buffer consisted of 20 mM Hepes pH 7.4, 25 mM KCl, 2 mM MgCl2, 0.5 mM dithiothreitol, 0.1% fatty acid free BSA, 10 μM NBD-dihydrosphingosine and 50 μM fatty acid free BSA. C18:0-CoA was used as the fatty acyl substrate for CerS1 and CerS4; C24:1-CoA for CerS2; and C16:0-CoA for CerS5 and CerS6. All reactions were run in triplicate. […] The reaction mixture was transferred to a glass HPLC vial with 300 μL fused glass insert (Thermo Fisher Scientific) and NBD-dihydroceramide reaction products were analysed on a Thermo Scientific Surveyor HPLC connected to a Shimadzu RF-10AXL fluorescent detector (set to gain of 3). […]

Sequence of murine CerS2 (Q924Z4 whole entry): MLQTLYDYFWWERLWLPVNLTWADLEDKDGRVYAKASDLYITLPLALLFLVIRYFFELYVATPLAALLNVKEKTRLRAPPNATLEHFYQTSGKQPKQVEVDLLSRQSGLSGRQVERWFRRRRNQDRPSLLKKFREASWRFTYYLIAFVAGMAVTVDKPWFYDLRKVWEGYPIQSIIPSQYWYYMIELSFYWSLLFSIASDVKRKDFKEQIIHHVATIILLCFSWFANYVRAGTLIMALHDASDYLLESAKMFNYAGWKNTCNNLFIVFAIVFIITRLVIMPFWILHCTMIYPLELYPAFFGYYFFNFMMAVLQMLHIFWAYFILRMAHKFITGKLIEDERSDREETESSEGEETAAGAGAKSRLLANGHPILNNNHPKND

| Structure (SMILES) | IC50 [1] [µM] | IC50 [2] [µM] | IC50 [3] [µM] |
| --- | --- | --- | --- |
| CCCC[C@@H](C)[C@@H](OC(=O)C[C@@H](CC(=O)O)C(=O)O)[C@H](C[C@@H](C)C[C@H](O)CCCC[C@@H](O)C[C@H](O)[C@H](C)N)OC(=O)C[C@@H](CC(=O)O)C(=O)O [FB1, reference compound] | 0.92 ± 0.06 | 0.29 ± 0.05 | – |
| C[C@@](N)(CO)CCc1ccc(OCc2ccc(Cl)c(Cl)c2)cc1 [P053, (S)-2-amino-4-(4-(3,4-dichlorobenzyloxy)phenyl)-2-methylbutan-1-ol] | 17.2 ± 0.09 | 11.4 ± 0.17 | 18.5 ± 0.12 |
| C[C@@](N)(CO)CCc1ccc(OCc2ccccc2)cc1 [G024, (2S)-2-amino-4-(4′-benzyloxyphenyl)-2-methyl-1-butanol] | 18 ± 0.12 | 8.5 ± 0.13 | – |
| CCCCCCCCc1ccc(CCC(N)(CO)CO)cc1 [FTY720, reference compound] | 26 ± 0.18 | 5.8 ± 0.2 | 10.6 ± 0.13 |
